# How the values were obtained:
# [1] = from COc1cc(N2CCC(N3CCN(C)CC3)CC2)c(CCCCCBr)cc1Nc1ncc(Br)c(Nc2ccc(O)cc2N(C)S(C)(=O)=O)n1; ether bond; 18-membered ring; KI/K2CO3; DMF; 10.2 mM
# [2] = from COc1cc(N2CCC(N3CCN(C)CC3)CC2)c(CCCCCBr)cc1Nc1ncc(Br)c(Nc2ccc(O)cc2N(C)S(C)(=O)=O)n1; ether bond; K2CO3/KI; DMF; 10.2 mM; 25.0 °C; 16.0 h
# [3] = target: T1, EGFR_L858R/T790M/C797S (Homo sapiens, UniProt P00533, C797S/L858R/T790M); test: In vitro biochemical kinase assay (33P-ATP filter-binding, Reaction Biology)
# T1 construct: Reaction Biology Corporation (contract assay provider)
# Method in brief: (§1)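 Compounds preincubated with kinase 20 min at room temperature in Hepes pH 7.5 buffer (10 mM MgCl2, 2 mM DTT, 1% DMSO), then 33P-ATP added for 2 h. Filter-binding radioactivity expressed as % activity remaining versus DMSO; IC50 by curve fit.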
# [4] = target: T2, EGFR_WT (Homo sapiens, UniProt P00533); test: as above
# T2 construct: Reaction Biology Corporation (contract assay provider)
# Method in brief: as §1
# [5] = target: Ba/F3_EGFR_del19/T790M/C797S cell (Homo sapiens, UniProt P00533, T790M/C797S, cells depend on it, form not given); test: BaF3 cell proliferation assay (CelltiterGlo, 72 hr); format: cell-based; conditions: 72 hr incubation; read-out: IC50 (nM, Ba/F3_EGFR_del19/T790M/C797S cell proliferation)
# Method: (§2) The BaF3 cell proliferation assay was performed at Pharmaron (www.pharmaron.com, Beijing, China). The Ba/F3_WT and Ba/F3_Del19/T790M/C797S cell lines were maintained in 1640 medium containing 10% FBS, 1*PS and 1*Glutamax. Only cells with viability greater than 90% are used for assays. Dispense 30 μl of cell suspension at 700/well into 384 well microplate, add 30 nl compound solution into 384 cell plate by Echo, cells were incubated for 72 hr in 37° C./5% CO2 incubator, add 30 μl reagent CelltiterGlo assay kit (CTG, Promega) per well and shake plates, incubate the plate (avoiding light) at 37° C./5% CO2 for 30 min. and read the luminescence by Envision. The luminescence values were converted to % Inhibition. Calculate IC50 by fitting % inhibition values and log of compound concentrations to nonlinear regression (dose response−variable slope) with Graphpad 5.0.
# (§3) Y=Bottom+(Top−Bottom)/(1+10^((Log IC50−X)*HillSlope))
# (§4) X: log of inhibitor concentration; Y: % Inhibition.
# [6] = test system: Ba/F3_WT cell; test: as above; format: cell-based; conditions: Mus musculus, 72 hr incubation
# Method: as §2, §3, §4
# [7] = test system: BaF3-EGFR-Del19/T790M/C797S cells; test: In vivo Cell Transplant Xenograft (CTX) model; design: species or system BALB/c nude mice; conditions: for tumor growth inhibition rate TGITV (%): end of the experiment
# Method: The pharmacological experiments in vivo were performed on BALB/c nude mice that subcutaneously implanted BaF3-EGFR-Del19/T790M/C797S cells. BALB/c nude mice, female, 6-8 weeks, weighted about 16-19 grams, the mice were kept in a special pathogen-free environment, and in a single ventilation cage (3 mice per cage). The bedding and water of all the cages were disinfected before use. All animals were free to obtain standard certified commercial laboratory diets. The BaF3-EGFR-Del19/T790M/C797S cell (5×10^6 cells/mice) was implanted subcutaneously for tumor growth. After 10 days, the experiment was started the average tumor volume reached about 130 mm^3. The mice were divided into 4 groups with 6 mice in each group. Compound A29 was orally administered once daily continuously for 15 days at 5 mg/kg, 15 mg/kg and 45 mg/kg. The tumor volume was measured twice a week with a two-dimensional caliper and the volume was measured in cubic millimeters and calculated by the following formula: V=0.5 a×b2, where a and b were the major and minor diameters of the tumor, respectively. The tumor volume at day n is expressed as Relative Tumor Volume (RTV) and calculated according to the following formula: RTV=TVn/TV0, where TVn is the tumor volume at day n and TV0 is the tumor volume at day 0. The T/C (the ratio of tumor volume in […] mice) is determined by TIC (%)=(mean RTV of treated group)/(mean RTV of control group)×100%. The tumor growth inhibition rate TGITV (%) is calculated using the formula TGITV (%)=(1−T/C)×100%.
# T1 sequence (P00533 25-1210 T790M/C797S/L858R): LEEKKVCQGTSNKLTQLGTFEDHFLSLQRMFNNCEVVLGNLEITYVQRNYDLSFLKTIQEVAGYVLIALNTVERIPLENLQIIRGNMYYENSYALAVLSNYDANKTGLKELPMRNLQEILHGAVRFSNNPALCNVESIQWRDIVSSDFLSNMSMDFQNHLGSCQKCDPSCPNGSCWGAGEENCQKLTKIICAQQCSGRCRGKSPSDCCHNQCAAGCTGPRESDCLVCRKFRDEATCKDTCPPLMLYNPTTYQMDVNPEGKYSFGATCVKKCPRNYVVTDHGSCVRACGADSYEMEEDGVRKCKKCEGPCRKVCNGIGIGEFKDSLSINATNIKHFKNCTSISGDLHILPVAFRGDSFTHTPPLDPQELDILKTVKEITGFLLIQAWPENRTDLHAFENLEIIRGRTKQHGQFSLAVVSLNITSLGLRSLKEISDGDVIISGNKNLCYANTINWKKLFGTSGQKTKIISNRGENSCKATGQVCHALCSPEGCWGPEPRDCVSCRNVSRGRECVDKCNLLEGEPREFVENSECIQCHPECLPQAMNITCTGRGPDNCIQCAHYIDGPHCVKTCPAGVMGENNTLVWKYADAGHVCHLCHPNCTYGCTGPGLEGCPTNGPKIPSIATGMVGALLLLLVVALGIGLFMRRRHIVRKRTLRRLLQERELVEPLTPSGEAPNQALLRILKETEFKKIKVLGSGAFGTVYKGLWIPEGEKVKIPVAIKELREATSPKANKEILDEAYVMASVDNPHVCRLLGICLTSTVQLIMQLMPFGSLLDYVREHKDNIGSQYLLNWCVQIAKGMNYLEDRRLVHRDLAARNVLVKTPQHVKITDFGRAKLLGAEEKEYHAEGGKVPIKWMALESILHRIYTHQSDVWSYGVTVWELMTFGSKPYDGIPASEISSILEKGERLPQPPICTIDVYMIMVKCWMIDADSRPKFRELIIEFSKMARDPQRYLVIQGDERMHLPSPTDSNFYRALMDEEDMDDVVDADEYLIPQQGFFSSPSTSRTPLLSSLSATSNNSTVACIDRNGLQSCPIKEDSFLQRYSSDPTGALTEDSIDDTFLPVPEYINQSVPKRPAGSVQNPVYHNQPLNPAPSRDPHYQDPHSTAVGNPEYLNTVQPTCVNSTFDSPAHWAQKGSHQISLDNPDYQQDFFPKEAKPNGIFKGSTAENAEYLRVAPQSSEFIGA
# T2 sequence (P00533 25-1210): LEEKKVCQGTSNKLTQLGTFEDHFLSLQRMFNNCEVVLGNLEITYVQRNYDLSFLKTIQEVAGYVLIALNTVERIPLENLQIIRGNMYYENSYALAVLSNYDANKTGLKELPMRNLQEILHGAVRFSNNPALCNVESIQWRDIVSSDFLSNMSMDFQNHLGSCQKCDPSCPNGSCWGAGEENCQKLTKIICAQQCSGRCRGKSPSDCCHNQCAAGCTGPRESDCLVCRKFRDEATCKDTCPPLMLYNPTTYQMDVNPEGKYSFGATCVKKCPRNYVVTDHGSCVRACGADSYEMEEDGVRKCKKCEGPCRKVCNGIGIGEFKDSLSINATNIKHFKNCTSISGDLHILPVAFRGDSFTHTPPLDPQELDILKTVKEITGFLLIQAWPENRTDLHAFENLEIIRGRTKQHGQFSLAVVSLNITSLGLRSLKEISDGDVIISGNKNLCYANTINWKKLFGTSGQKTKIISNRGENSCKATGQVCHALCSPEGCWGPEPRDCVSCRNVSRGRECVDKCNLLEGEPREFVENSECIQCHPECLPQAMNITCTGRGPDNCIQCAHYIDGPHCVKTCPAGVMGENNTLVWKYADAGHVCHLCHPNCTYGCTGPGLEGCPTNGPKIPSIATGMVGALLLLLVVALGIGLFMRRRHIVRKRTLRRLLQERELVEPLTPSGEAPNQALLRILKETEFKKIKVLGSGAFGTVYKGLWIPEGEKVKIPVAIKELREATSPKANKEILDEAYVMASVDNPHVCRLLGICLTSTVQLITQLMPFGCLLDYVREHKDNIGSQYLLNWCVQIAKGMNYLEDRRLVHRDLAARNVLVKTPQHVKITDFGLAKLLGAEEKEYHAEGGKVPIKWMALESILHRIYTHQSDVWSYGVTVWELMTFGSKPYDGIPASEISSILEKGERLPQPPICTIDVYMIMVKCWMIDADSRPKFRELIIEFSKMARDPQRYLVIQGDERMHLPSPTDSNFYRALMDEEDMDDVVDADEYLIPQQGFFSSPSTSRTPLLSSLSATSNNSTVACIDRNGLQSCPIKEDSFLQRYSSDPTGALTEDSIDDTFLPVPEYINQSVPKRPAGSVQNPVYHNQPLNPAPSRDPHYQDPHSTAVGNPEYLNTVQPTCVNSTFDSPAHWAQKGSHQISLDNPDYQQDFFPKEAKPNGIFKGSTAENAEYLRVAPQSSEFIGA
# Chain of Ba/F3_EGFR_del19/T790M/C797S cell (P00533 with tags, fused parts or gaps DEL746-750/T790M/C797S, form open): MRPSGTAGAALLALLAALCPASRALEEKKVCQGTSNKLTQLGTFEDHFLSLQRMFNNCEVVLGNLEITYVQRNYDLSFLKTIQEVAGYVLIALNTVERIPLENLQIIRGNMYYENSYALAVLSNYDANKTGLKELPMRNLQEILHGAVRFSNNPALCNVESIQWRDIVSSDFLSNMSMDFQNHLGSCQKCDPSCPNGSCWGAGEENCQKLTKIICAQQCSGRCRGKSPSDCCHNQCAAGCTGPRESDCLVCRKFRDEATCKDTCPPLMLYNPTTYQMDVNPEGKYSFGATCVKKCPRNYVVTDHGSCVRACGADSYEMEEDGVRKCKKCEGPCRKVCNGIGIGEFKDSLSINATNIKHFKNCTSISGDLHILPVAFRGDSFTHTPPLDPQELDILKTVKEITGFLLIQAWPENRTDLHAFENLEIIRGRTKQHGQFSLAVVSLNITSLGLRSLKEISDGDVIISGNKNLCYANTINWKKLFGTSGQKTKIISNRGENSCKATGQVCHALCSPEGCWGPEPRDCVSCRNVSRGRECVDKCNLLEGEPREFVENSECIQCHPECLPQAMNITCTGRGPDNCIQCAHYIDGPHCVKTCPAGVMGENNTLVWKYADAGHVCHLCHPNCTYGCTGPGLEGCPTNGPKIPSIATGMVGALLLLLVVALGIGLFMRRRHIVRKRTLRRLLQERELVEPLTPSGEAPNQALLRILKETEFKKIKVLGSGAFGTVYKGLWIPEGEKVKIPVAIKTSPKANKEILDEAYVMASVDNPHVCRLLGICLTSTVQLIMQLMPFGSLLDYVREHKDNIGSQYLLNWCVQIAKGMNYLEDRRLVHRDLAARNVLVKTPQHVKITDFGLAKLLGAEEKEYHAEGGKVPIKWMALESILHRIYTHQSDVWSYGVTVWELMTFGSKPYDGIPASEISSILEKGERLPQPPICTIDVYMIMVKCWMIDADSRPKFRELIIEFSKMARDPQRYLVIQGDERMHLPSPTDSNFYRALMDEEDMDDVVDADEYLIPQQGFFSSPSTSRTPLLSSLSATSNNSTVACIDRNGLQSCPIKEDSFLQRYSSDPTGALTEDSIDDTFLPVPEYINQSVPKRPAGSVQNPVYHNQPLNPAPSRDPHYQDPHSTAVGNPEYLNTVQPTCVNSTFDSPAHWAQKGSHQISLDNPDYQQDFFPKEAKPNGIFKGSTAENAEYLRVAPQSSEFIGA
smiles,measurement,setting,value
"COc1cc(N2CCC(N3CCN(C)CC3)CC2)c2cc1Nc1ncc(Br)c(n1)Nc1ccc(cc1N(C)S(C)(=O)=O)OCCCCC2 [Compound A29, N-(3^5-bromo-1^6-methoxy-1^4-(4-(4-methylpiperazin-1-yl)piperidin-1-yl)-6-oxa-2,4-diaza-3(2,4)-pyrimidina-1(1,3),5(1,4)-dibenzenacycloundecaphane-5^2-yl)-N-methylmethanesulfonamide]","ring closure, isolated yield",[1],55%
same,"ring closure, yield of all isomers",[2],55%
same,IC50,[3],0.5 nM
same,IC50,[4],9.2 nM
same,GI50,[5],16.4 nM
same,IC50,[6],1320 nM
same,Tumor Volume,"[7]; 5 mg/kg orally once daily, Day 0",130 mm^3
same,Tumor Volume,"[7]; 5 mg/kg orally once daily, Day 2",212 mm^3
same,Tumor Volume,"[7]; 5 mg/kg orally once daily, Day 4",279 mm^3
same,Tumor Volume,"[7]; 5 mg/kg orally once daily, Day 7",462 mm^3
same,Tumor Volume,"[7]; 5 mg/kg orally once daily, Day 9",633 mm^3
same,Tumor Volume,"[7]; 5 mg/kg orally once daily, Day 11",819 mm^3
same,Tumor Volume,"[7]; 5 mg/kg orally once daily, Day 14",1061 mm^3
same,tumor growth inhibition rate TGITV (%),[7]; 5 mg/kg orally once daily,68%
same,Tumor Volume,"[7]; 15 mg/kg orally once daily, Day 0",130 mm^3
same,Tumor Volume,"[7]; 15 mg/kg orally once daily, Day 2",171 mm^3
same,Tumor Volume,"[7]; 15 mg/kg orally once daily, Day 4",226 mm^3
same,Tumor Volume,"[7]; 15 mg/kg orally once daily, Day 7",346 mm^3
same,Tumor Volume,"[7]; 15 mg/kg orally once daily, Day 9",469 mm^3
same,Tumor Volume,"[7]; 15 mg/kg orally once daily, Day 11",597 mm^3
same,Tumor Volume,"[7]; 15 mg/kg orally once daily, Day 14",781 mm^3
same,tumor growth inhibition rate TGITV (%),[7]; 15 mg/kg orally once daily,76%
same,Tumor Volume,"[7]; 45 mg/kg orally once daily, Day 0",130 mm^3
same,Tumor Volume,"[7]; 45 mg/kg orally once daily, Day 2",147 mm^3
same,Tumor Volume,"[7]; 45 mg/kg orally once daily, Day 4",172 mm^3
same,Tumor Volume,"[7]; 45 mg/kg orally once daily, Day 7",108 mm^3
same,Tumor Volume,"[7]; 45 mg/kg orally once daily, Day 9",78 mm^3
same,Tumor Volume,"[7]; 45 mg/kg orally once daily, Day 11",25 mm^3
same,Tumor Volume,"[7]; 45 mg/kg orally once daily, Day 14",0 mm^3
same,tumor growth inhibition rate TGITV (%),[7]; 45 mg/kg orally once daily,100%
same,tumor growth inhibition (in words),"[7]; all doses (5, 15, 45 mg/kg)",significant tumor growth inhibition

# — US20230159556A1, “NOVEL PROTEIN KINASE INHIBITORS” (TENOVA PHARMACEUTICALS INC., priority 2020, published 2023)
